Measured values published in patent US12030865B2, “Pesticidal mixtures comprising indazoles” (FMC Corporation, priority 2018, dated 2024).

Legend:
Type in all cases: in vivo
[1] = system: green peach aphid (Myzus persicae (Sulzer)); test: Test A: control of green peach aphid on pre-infested radish plant, spray; conditions: 144 h, visually assessed after 6 days; for mortality at 50 ppm: sprayed at 50 ppm; for mortality at 250 ppm: sprayed at 250 ppm
Description: (§1) Test compounds were formulated using a solution containing 10% acetone, 90% water and 300 ppm X-77® Spreader Lo-Foam Formula non-ionic surfactant containing alkylarylpolyoxyethylene, free fatty acids, glycols and isopropanol (Loveland Industries, Inc. Greeley, Colorado, USA). The formulated compounds were applied in 1 mL of liquid through a SUJ2 atomizer nozzle with 1/8 JJ custom body (Spraying Systems Co. Wheaton, Illinois, USA) positioned 1.27 cm (0.5 inches) above the top of each test unit. Test compounds were sprayed at the rates indicated, and each test was replicated three times.
For evaluating control of green peach aphid (Myzus persicae (Sulzer)) through contact and/or systemic means, the test unit consisted of a small open container with a 12-15-day-old radish plant inside. This was pre-infested by placing on a leaf of the test plant 30-40 aphids on a piece of leaf excised from a culture plant (cut-leaf method). The aphids moved onto the test plant as the leaf piece desiccated. After pre-infestation, the soil of the test unit was covered with a layer of sand.
Test compounds were formulated and sprayed at 250 and/or 50 ppm. After spraying of the formulated test compound, each test unit was allowed to dry for 1 hour and then a black, screened cap was placed on top. The test units were held for 6 days in a growth chamber at 19-21° C. and 50-70% relative humidity. Each test unit was then visually assessed for insect mortality.

[2] = system: cotton melon aphid (Aphis gossypii (Glover)); test: Test B: control of cotton melon aphid on pre-infested cotton plant, spray; conditions: 144 h, sprayed at 50 ppm, visually assessed after 6 days
Description: as §1
For evaluating control of cotton melon aphid (Aphis gossypii (Glover)) through contact and/or systemic means, the test unit consisted of a small open container with a 6-7-day-old cotton plant inside. This was pre-infested with 30-40 insects on a piece of leaf according to the cut-leaf method, and the soil of the test unit was covered with a layer of sand.
Test compounds were formulated and sprayed at 250 and/or 50 ppm. After spraying, the test units were maintained in a growth chamber for 6 days at 19° C. and 70% relative humidity. Each test unit was then visually assessed for insect mortality.

[3] = system: sweetpotato whitefly (Bemisia tabaci (Gennadius)); test: Test C: control of sweetpotato whitefly on egg-infested cotton plant, spray; conditions: 312 h, cotton plant with eggs, visually assessed after 13 days; for mortality at 250 ppm: sprayed at 250 ppm
Description: as §1
For evaluating control of the sweetpotato whitefly (Bemisia tabaci (Gennadius)) through contact and/or systemic means, the test unit consisted of a small open container with a 12-14-day-old cotton plant inside. Prior to the spray application, both cotyledons were removed from the plant, leaving one true leaf for the assay. Adult whiteflies were allowed to lay eggs on the plant and then were removed from the test unit. Cotton plants infested with at least 15 eggs were submitted to the test for spraying.
Test compounds were formulated and sprayed at 250 and/or 50 ppm. After spraying, the test units were allowed to dry for 1 hour. The cylinders were then removed, and the units were taken to a growth chamber and held for 13 days at 28° C. and 50-70% relative humidity. Each test unit was then visually assessed for insect mortality.

[4] = system: Western Flower Thrips (Frankliniellla occidentalis (Pergande)); test: Test D: control of Western Flower Thrips on Soleil bean plant, spray; conditions: adult thrips, held 6 days
Description: as §1
For evaluating control of the Western Flower Thrips (Frankliniellla occidentalis (Pergande)) through contact and/or systemic means, the test unit consisted of a small open container with a 5-7-day-old Soleil bean plant inside.
Test compounds were formulated and sprayed at 250 and/or 50 ppm. After spraying, the test units were allowed to dry for 1 hour, and then 22-27 adult thrips were added to each unit. A black, screened cap was placed on top, and the test units were held for 6 days at 25° C. and 45-55% relative humidity.

| Compound | mortality at 50 ppm [1] [%] | mortality at 250 ppm [1] [%] | mortality at 50 ppm [2] [%] | mortality at 50 ppm ([3]; sprayed at 50 ppm) [%] | mortality at 250 ppm [3] [%] | control efficacy (30% or less plant damage and/or 100% mortality) ([4]; sprayed at 50 ppm) | control efficacy (30% or less plant damage and/or 100% mortality) ([4]; sprayed at 250 ppm) |
| --- | --- | --- | --- | --- | --- | --- | --- |
| O=C(NC1(C(F)F)CC1)c1cccc2nn(-c3cccnc3)cc12 [Compound 1, N-[1-(difluoromethyl)cyclopropyl]-2-(3-pyridinyl)-2H-indazole-4-carboxamide] | ≥ 80 | ≥ 80 | ≥ 80 | ≥ 50 | ≥ 50 | very good to excellent levels of control efficacy | very good to excellent levels of control efficacy |
| CSCC(C)(C)NC(=O)c1ccc(F)c2nn(-c3cccnc3)cc12 [Compound 2a, N-[1,1-dimethyl-2-(methylthio)ethyl]-7-fluoro-2-(3-pyridinyl)-2H-indazole-4-carboxamide] | ≥ 80 | ≥ 80 | ≥ 80 | – | – | very good to excellent levels of control efficacy | very good to excellent levels of control efficacy |
| C[S+]([O-])CC(C)(C)NC(=O)c1ccc(F)c2nn(-c3cccnc3)cc12 (stereo not shown) [Compound 2b, N-[1,1-dimethyl-2-(methylsulfinyl)ethyl]-7-fluoro-2-(3-pyridinyl)-2H indazole-4-carboxamide] | ≥ 80 | – | ≥ 80 | – | ≥ 50 | very good to excellent levels of control efficacy | very good to excellent levels of control efficacy |
| CC(C)(CS(C)(=O)=O)NC(=O)c1ccc(F)c2nn(-c3cccnc3)cc12 [Compound 2c, N-[1,1-dimethyl-2-(methylsulfonyl)ethyl]-7-fluoro-2-(3-pyridinyl)-2H indazole-4-carboxamide] | ≥ 80 | – | ≥ 80 | – | – | – | – |
